# Legend:
# c-KIT kinase = molecular target: T1, c-KIT kinase (Homo sapiens, UniProt P10721); assay: c-KIT kinase DELFIA assay (HTScan c-KIT Kinase Assay Kit); assay type: biochemical; conditions: 20 uM ATP; for inhibition at 0.1 µM: 0.1 uM compound; for inhibition at 1 µM: 1 uM compound
# T1 construct: human c-KIT (Thr544-Val976); GST (N); purchased Cell Signaling Technology HTScan c-KIT Kinase Assay Kit; host or cells: baculovirus expression system
# Protocol: (§1) Azaazulene Compounds of this invention were treated for their efficacy in inhibiting activities of FLT-3, c-KIT and KDR kinases by biochemical DELFIA (Dissociation Enhanced Lanthanide FIA) assays according to the procedure described below. The assays were conducted by, Division of Cell Engineering, Biomedical Engineering Research Laboratories, Industrial Technology Research Institute, Bldg. 53, 195, sec. 4, Chung Hsing Rd. Chutung, Hsinchu, Taiwan 310, R.O.C.
# The c-KIT assay was conducted following the protocol described in Protocol for HTScan® c-KIT Kinase Assay Kit (Cell Signaling Technology®).
# [1] = tested on: MV4-11 (FLT3-ITD) cell line; assay: In vitro cell activity assay (MTT cell viability, 72 hours); assay type: cell-based; conditions: Homo sapiens, 72 hours at 37° C., 10,000 cells per well, read-out: IC50 against MV4-11
# Protocol: Human MV4-11 (FLT3-ITD) cell line was obtained from American Tissue Culture Collection (ATCC number: CRL-9591). The cell line was cultured with RPMI 1640 containing 10% fetal bovine serum, 1 mmol/L sodium pyruvate and 10 mmol/L HEPES (pH 7.4). The cell was grown and maintained in a humidified atmosphere at 37° C. and 5% carbon dioxide.
# MV4-11 cell was plated in 96-well microtiter plates (10,000 cells per well) and serial dilutions of indicated compounds were added. At the end of the incubation period (72 hours at 37° C.), cell viability was determined by a tetrazolium dye, MTT (3-(4,5-dimethylthiazol-2-yl)-2,5-diphenyl tetrazolium bromide) (Promega, Madison, Wis.). The formazan crystals were dissolved by DMSO, and the absorbance at a wavelength of 600 nm was recorded using an ELISA plate reader. IC50 values were calculated using nonlinear regression and defined as the concentration needed for a 50% reduction in absorbance of treated versus untreated control cells.
# FLT-3 kinase = molecular target: T2, FLT-3 kinase (Homo sapiens, UniProt P36888); assay: FLT-3 kinase DELFIA assay (HTScan FLT-3 Kinase Assay Kit); assay type: biochemical; conditions: 20 uM ATP; for inhibition at 0.1 µM: 0.1 uM compound; for inhibition at 1 µM: 1 uM compound
# T2 construct: human FLT-3 (Arg571-Ser993); GST (N); purchased Cell Signaling Technology HTScan FLT-3 Kinase Assay Kit; host or cells: baculovirus expression system
# T2 sequence (P36888 571-993): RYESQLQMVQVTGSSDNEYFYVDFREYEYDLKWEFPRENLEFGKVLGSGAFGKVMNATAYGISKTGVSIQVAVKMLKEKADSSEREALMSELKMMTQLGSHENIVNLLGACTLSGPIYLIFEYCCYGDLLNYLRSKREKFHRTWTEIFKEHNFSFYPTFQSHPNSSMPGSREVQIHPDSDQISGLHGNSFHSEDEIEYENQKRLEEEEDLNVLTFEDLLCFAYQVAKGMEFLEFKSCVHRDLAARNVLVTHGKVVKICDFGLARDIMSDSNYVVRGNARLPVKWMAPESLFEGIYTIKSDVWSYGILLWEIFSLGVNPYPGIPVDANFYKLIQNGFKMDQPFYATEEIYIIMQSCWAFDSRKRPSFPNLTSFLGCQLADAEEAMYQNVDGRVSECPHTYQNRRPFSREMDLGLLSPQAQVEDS
# Protocol: as §1
# The FLT-3 assay was conducted following the protocol described in Protocol for HTScang FLT-3 Kinase Assay Kit (Cell Signaling Technology®).
# KDR kinase = molecular target: T3, KDR kinase (Homo sapiens, UniProt P35968); assay: KDR kinase DELFIA assay (HTScan VEGFR-2 Kinase Assay Kit); assay type: biochemical; conditions: 20 uM ATP; for inhibition at 1 µM: 1 uM compound, read-out: Kinases inhibitory activities against KDR kinase, 1 uM; for inhibition at 0.1 µM: 0.1 uM compound, read-out: Kinases inhibitory activities against KDR kinase, 0.1 uM
# T3 construct: human VEGFR-2 (Val789-Val1356); GST (N); purchased Cell Signaling Technology HTScan VEGFR-2 Kinase Assay Kit; host or cells: baculovirus expression system
# Protocol: as §1
# The KDR assay was conducted following the protocol described in Protocol for HTScan™ VEGFR-2 Kinase Assay Kit (Cell Signaling Technology™).
# T3 sequence (P35968 789-1356): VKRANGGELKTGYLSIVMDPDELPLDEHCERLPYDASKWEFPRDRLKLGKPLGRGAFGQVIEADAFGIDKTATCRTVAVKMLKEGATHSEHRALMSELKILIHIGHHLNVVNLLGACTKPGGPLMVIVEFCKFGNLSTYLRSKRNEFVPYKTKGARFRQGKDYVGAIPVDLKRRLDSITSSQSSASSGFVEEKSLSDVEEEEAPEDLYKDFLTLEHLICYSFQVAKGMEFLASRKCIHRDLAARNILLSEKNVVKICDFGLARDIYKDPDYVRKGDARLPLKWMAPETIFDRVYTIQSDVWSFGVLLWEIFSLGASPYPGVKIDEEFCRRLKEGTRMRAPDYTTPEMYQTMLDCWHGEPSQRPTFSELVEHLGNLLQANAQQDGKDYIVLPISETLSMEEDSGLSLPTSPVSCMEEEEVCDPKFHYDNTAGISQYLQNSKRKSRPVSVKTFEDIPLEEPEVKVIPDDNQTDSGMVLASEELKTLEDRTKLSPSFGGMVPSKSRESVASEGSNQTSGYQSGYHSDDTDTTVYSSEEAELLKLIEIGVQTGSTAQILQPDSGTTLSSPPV
# T1 sequence (P10721 544-976): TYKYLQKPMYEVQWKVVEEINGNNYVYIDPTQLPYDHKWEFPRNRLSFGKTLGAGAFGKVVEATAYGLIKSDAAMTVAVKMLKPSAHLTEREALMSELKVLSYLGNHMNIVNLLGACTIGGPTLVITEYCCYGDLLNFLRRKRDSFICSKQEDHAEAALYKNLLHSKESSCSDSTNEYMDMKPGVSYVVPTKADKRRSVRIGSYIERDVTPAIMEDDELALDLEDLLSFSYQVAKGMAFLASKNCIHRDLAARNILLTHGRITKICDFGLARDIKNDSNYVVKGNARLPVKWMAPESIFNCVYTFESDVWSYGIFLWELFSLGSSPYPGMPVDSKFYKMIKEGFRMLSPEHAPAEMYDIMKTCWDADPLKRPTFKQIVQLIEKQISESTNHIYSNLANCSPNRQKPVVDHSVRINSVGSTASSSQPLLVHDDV
Compound,inhibition at 0.1 µM (c-KIT kinase),inhibition at 1 µM (c-KIT kinase),IC50 [1],inhibition at 0.1 µM (FLT-3 kinase),inhibition at 1 µM (FLT-3 kinase),inhibition at 1 µM (KDR kinase),inhibition at 0.1 µM (KDR kinase)
"O=c1[nH]c2cccccc-2c1-c1nc2ccccc2[nH]1 [Compound A1, 3-(benzimidazol-2-yl)-1-azaazulen-2-one, reference compound]",34.1%,64.5%,~1000 nM,11.5%,59.4%,–,–
CCN(CC)CCn1c2cccccc-2c(-c2nc3ccccc3[nH]2)c1=O [Compound B1],31.2%,41.1%,1000 to 5000 nM,8.4%,10.4%,3.7%,–
O=c1[nH]c2cccccc-2c1-c1nc2cc(F)ccc2[nH]1 [Compound B2],6.4%,57.9%,1000 to 5000 nM,18.9%,59.9%,94.5%,78.3%
Nc1ncnc2[nH]c(-c3c4cccccc-4[nH]c3=O)nc12 [Compound B11],15.1%,43.7%,1000 to 5000 nM,12.5%,27.3%,–,–
COc1ccc2nc(-c3c4cccccc-4[nH]c3=O)cn2c1 [Compound B14],20.1%,39.4%,1000 to 5000 nM,–,9.6%,–,–
O=c1[nH]c2cccccc-2c1-c1nc2cccnc2[nH]1 [Compound B15],8.5%,43.1%,1000 to 5000 nM,8.6%,18.1%,–,–
CN(C)CCCN(C)c1ccc2[nH]c(-c3c4cccccc-4[nH]c3=O)nc2c1 [Compound B21],10.8%,55.4%,428 nM,20.1%,63%,–,–
C[N+]1([O-])CC[N+]([O-])(c2ccc3[nH]c(-c4c5cccccc-5[nH]c4=O)nc3c2)CC1 (centres unmarked) [Compound B70],40.5%,86.6%,~1000 nM,11.1%,27.5%,–,–
O=c1[nH]c2cccccc-2c1-c1nc2cc(N3CCCN(CCF)CC3)ccc2[nH]1 [Compound B80],56.7%,82.9%,796 nM,23.1%,71.4%,–,–
O=c1[nH]c2cccccc-2c1-c1nc2cc(N3CCCNCC3)ccc2n1CCCF [Compound B81],28.9%,17.2%,208 nM,9.9%,21%,–,–
O=c1[nH]c2cccccc-2c1-c1nc2cc(N3CCCN(CCCF)CC3)ccc2[nH]1 [Compound B82],31%,91.1%,18.6 nM,30.3%,81.6%,–,–
O=c1[nH]c2cccccc-2c1-c1nc2cc(N3CCCN(CCCF)CC3)ccc2n1CCCF [Compound B83],–,19.7%,227 nM,11%,21.2%,–,–
O=c1[nH]c2cccccc-2c1-c1nc2cc(N3CCCN(Cc4cccnc4)CC3)ccc2[nH]1 [Compound B87],49.6%,96.2%,88.6 nM,39.8%,91.6%,–,–
O=CN1CCCN(c2ccc3[nH]c(-c4c5cccccc-5[nH]c4=O)nc3c2)CC1 [Compound B88],47.2%,89.2%,144 nM,20.6%,62.4%,–,–
O=c1[nH]c2cccccc-2c1-c1nc2cc(N3CCCN(c4ccccn4)CC3)ccc2[nH]1 [Compound B94],12.3%,79.1%,852 nM,17%,52.3%,–,–
O=c1[nH]c2cccccc-2c1-c1nc2cc(N3CCCN(c4ncccc4[N+](=O)[O-])CC3)ccc2[nH]1 [Compound B95],48.3%,82.6%,771 nM,14.4%,37.7%,–,–
Cc1cc(N2CCCN(c3ccc4[nH]c(-c5c6cccccc-6[nH]c5=O)nc4c3)CC2)nc(N(C)C)n1 [Compound B97],40.1%,87.2%,100 to 500 nM,8.8%,44.6%,–,–
O=c1[nH]c2cccccc-2c1-c1nc2cc(-n3ccnc3)ccc2[nH]1 [Compound B115],–,–,306 nM,25.4%,72.7%,–,–

# Second part, the molecule after the results:
inhibition at 0.1 µM (c-KIT kinase),inhibition at 1 µM (c-KIT kinase),IC50 [1],inhibition at 0.1 µM (FLT-3 kinase),inhibition at 1 µM (FLT-3 kinase),inhibition at 1 µM (KDR kinase),inhibition at 0.1 µM (KDR kinase),Compound
5%,37.6%,1000 to 5000 nM,13.7%,37.1%,17.8%,14.4%,O=c1[nH]c2cccccc-2c1-c1nc2cc(C(F)(F)F)ccc2[nH]1 [Compound B4]
66.6%,36.8%,64.1 nM,57.9%,76.3%,–,–,O=C(Nc1ccc(Cl)c(C(F)(F)F)c1)Nc1ccc2[nH]c(-c3c4cccccc-4[nH]c3=O)nc2c1 [Compound B118]
–,–,100 to 500 nM,32%,44.6%,–,–,O=C(Nc1ccc2[nH]c(-c3c4cccccc-4[nH]c3=O)nc2c1)Nc1cc(C(F)(F)F)ccc1F [Compound B119]
–,–,676 nM,10.2%,10.1%,–,–,O=C(Nc1ccc2[nH]c(-c3c4cccccc-4[nH]c3=O)nc2c1)Nc1cc(F)ccc1F [Compound B120]
–,–,1000 to 5000 nM,8.6%,24%,–,–,O=C(Nc1ccc(F)c(Cl)c1)Nc1ccc2[nH]c(-c3c4cccccc-4[nH]c3=O)nc2c1 [Compound B130]
–,–,1000 to 5000 nM,7.9%,7.3%,–,–,O=C(Nc1ccc2[nH]c(-c3c4cccccc-4[nH]c3=O)nc2c1)Nc1ccccc1C(F)(F)F [Compound B131]
–,–,580 nM,47.5%,72.4%,–,–,O=C(Nc1cccc(C(F)(F)F)c1)Nc1ccc2[nH]c(-c3c4cccccc-4[nH]c3=O)nc2c1 [Compound B132]
–,–,100 to 500 nM,30.5%,53.3%,–,–,O=C(Nc1ccc(C(F)(F)F)cc1)Nc1ccc2[nH]c(-c3c4cccccc-4[nH]c3=O)nc2c1 [Compound B133]
–,–,670 nM,36.8%,57.3%,–,–,O=C(Nc1cc(C(F)(F)F)cc(C(F)(F)F)c1)Nc1ccc2[nH]c(-c3c4cccccc-4[nH]c3=O)nc2c1 [Compound B134]
–,–,626 nM,41.4%,62%,–,–,O=C(Nc1ccc2[nH]c(-c3c4cccccc-4[nH]c3=O)nc2c1)Nc1cc(C(F)(F)F)ccc1Cl [Compound B135]
–,–,1000 to 5000 nM,21%,70.8%,–,–,O=C(Nc1ccc2[nH]c(-c3c4cccccc-4[nH]c3=O)nc2c1)Nc1ccc(Cl)cc1C(F)(F)F [Compound B136]
–,–,50 to 100 nM,14.3%,19%,–,–,COc1ccccc1NC(=O)Nc1ccc2[nH]c(-c3c4cccccc-4[nH]c3=O)nc2c1 [Compound B137]
–,–,718 nM,35.6%,58.1%,–,–,COc1cccc(NC(=O)Nc2ccc3[nH]c(-c4c5cccccc-5[nH]c4=O)nc3c2)c1 [Compound B138]

# Reference: US8492374B2, “Azaazulene compounds” (Industrial Technology Research Institute, priority 2009, dated 2013)
